Changes are numbered by the printed parent chain. Read-outs that look alike come from different tables or passages of the source. Ends that are not written are not given here.
Legend:
Assay in all cases: biochemical
[1] = biological target: T1, HLA-DP DPA1*01:03/DPB1*04:01 (Homo sapiens, UniProt P04440+P20036); type: binding
T1 sequence (P20036 29-260): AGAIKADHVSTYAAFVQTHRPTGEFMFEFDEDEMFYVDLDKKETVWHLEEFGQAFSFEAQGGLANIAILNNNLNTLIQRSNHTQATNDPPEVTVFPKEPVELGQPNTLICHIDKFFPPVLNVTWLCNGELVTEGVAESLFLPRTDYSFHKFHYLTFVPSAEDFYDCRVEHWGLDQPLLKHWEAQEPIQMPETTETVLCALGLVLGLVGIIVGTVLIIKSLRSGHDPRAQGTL
T1 sequence (P04440 30-258): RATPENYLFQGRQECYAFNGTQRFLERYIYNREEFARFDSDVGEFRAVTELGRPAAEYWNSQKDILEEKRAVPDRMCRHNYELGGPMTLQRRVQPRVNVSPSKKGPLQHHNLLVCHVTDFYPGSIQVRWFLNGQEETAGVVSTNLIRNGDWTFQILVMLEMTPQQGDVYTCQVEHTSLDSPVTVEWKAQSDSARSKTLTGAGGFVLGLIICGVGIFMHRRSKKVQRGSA

HLA-DR DRB3*02:02 = HLA-DR DRB3*02:02 (Homo sapiens, UniProt P01903+P79483, A212P/D57E/F66Y/L67A/R103Q/R218S/R40L/S89Y/T80R/V86D/Y55F/Y59H); type: binding
[2] = biological target: HLA-DP DPA1*03:01/DPB1*04:02 (Homo sapiens, UniProt P04440+P20036, A42M/A65V/A84D/A85E/L207M/L97S)
HLA-DR DRB1*16:02 = HLA-DR DRB1*16:02 (Homo sapiens, UniProt P01903+P01911, A100R/F76Y/I96L/Q99D/V115G); type: binding
[3] = biological target: T2, HLA-DP DPA1*02:01/DPB1*14:01 (Homo sapiens, UniProt P04440+P20036, A65V/A84D/A85E/E86D/F191V/F38H/G113D/G114E/G40L/I94L/K142R/L158P/L37V/M105V/M116V/M62Q/P115A/Q81R/R125K/T114A/T199I/T259P); type: binding
T2 sequence (P20036 29-260 A42M/M62Q/Q81R/T114A/K142R/L158P/F191V/T259P): T1 sequence (P20036 29-260) with A14M, M34Q, Q53R, T86A, K114R, L130P, F163V, T231P
T2 sequence (P04440 30-258 L37V/F38H/G40L/A65V/A84D/A85E/E86D/I94L/M105V/G113D/G114E/P115A/M116V/R125K/T199I/R223Q): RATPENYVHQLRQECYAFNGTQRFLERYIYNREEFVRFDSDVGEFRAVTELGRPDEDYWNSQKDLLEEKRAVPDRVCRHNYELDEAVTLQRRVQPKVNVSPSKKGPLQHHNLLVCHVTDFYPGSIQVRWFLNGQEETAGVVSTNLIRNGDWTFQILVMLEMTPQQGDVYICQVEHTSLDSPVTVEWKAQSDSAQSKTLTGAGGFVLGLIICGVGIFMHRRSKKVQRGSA

HLA-DR DRB5*01:01 = HLA-DR DRB5*01:01 (Homo sapiens, UniProt P01903+Q30154); type: binding
HLA-DR DRB1*15:01 = HLA-DR DRB1*15:01 (Homo sapiens, UniProt P01903+P01911); type: binding
HLA-DR DRB3*01:01 = HLA-DR DRB3*01:01 (Homo sapiens, UniProt P01903+P79483); type: binding
[4] = biological target: HLA-DP DPA1*02:01/DPB1*01:01 (Homo sapiens, UniProt P04440+P20036, F191V/F38Y/F64Y/G113D/G114E/K142R/L158P/L37V/M105V/M116V/M62Q/P115A/Q81R/R125K/R223Q/T114A/T199I/T259P)
Chain of HLA-DP DPA1*02:01/DPB1*01:01 (P20036 29-260 A42M/M62Q/Q81R/T114A/K142R/L158P/F191V/T259P, other chains not shown): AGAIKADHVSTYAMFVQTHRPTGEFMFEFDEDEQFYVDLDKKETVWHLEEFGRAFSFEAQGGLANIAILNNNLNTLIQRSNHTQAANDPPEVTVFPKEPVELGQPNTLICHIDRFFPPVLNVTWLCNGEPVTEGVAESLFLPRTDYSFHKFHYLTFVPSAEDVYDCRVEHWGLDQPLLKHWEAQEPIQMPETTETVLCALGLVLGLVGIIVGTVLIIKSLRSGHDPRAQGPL

[5] = biological target: T3, HLA-DP DPA1*01:03/DPB1*03:01 (Homo sapiens, UniProt P04440+P20036, A65V/A84D/A85E/E86D/F38Y/G113D/G114E/G40L/I94L/L37V/M105V/M116V/P115A/R125K/T199I); type: binding
T3 sequence (P20036 29-260): T1 sequence (P20036 29-260)
T3 sequence (P04440 30-258 L37V/F38Y/G40L/A65V/A84D/A85E/E86D/I94L/M105V/G113D/G114E/P115A/M116V/R125K/T199I): T2 sequence (P04440 30-258 L37V/F38H/G40L/A65V/A84D/A85E/E86D/I94L/M105V/G113D/G114E/P115A/M116V/R125K/T199I/R223Q) with H9Y, Q194R

HLA-DR DRB4*01:01 = HLA-DR DRB4*01:01 (Homo sapiens, UniProt P01903+P13762, G164S); type: binding
[6] = biological target: T4, HLA-DP DPA1*02:01/DPB1*05:01 (Homo sapiens, UniProt P04440+P20036, A65V/A84E/F191V/F64L/G113D/G114E/K142R/L158P/M116V/M62Q/P115A/Q81R/R125K/T114A/T199I/T259P/V234M); type: binding; conditions: read-out: Binding capacity/IC50 (nM) DPA1*02:01 DPB1*05:01
T4 sequence (P20036 29-260 A42M/M62Q/Q81R/T114A/K142R/L158P/F191V/T259P): T1 sequence (P20036 29-260) with A14M, M34Q, Q53R, T86A, K114R, L130P, F163V, T231P
T4 sequence (P04440 30-258 F64L/A65V/A84E/G113D/G114E/P115A/M116V/R125K/T199I/V234M): T1 sequence (P04440 30-258) with F35L, A36V, A55E, G84D, G85E, P86A, M87V, R96K, T170I, V205M

[7] = read-out: Binding capacity/IC50 (nM) DRB1*15:01
[8] = read-out: Binding capacity/IC50 (nM) DRB3*01:01
[9] = read-out: Binding capacity/IC50 (nM) DRB4*01:01
[10] = read-out: Binding capacity/IC50 (nM) DRB3*02:02
[11] = read-out: Binding capacity/IC50 (nM) DRB1*16:02
[12] = read-out: Binding capacity/IC50 (nM) DPA1*02:01 DPB1*14:01
[13] = read-out: Binding capacity/IC50 (nM) DRB5*01:01
[14] = read-out: Binding capacity/IC50 (nM) DPA1*01:03 DPB1*03:01
[15] = read-out: Binding capacity/IC50 (nM) DPA1*01:03 DPB1*04:01

| Compound | IC50 [1] [nM] | IC50 (HLA-DR DRB3*02:02) [nM] | IC50 [2] [nM] | IC50 (HLA-DR DRB1*16:02) [nM] | IC50 [3] [nM] | IC50 (HLA-DR DRB5*01:01) [nM] | IC50 (HLA-DR DRB1*15:01; [7]) [nM] | IC50 (HLA-DR DRB3*01:01; [8]) [nM] | IC50 [4] [nM] | IC50 [5] [nM] | IC50 (HLA-DR DRB4*01:01; [9]) [nM] | IC50 [6] [nM] | IC50 (HLA-DR DRB3*02:02; [10]) [nM] | IC50 (HLA-DR DRB1*16:02; [11]) [nM] | IC50 [3, 12] [nM] | IC50 (HLA-DR DRB5*01:01; [13]) [nM] | IC50 (HLA-DR DRB1*15:01) [nM] | IC50 [5, 14] [nM] | IC50 [1, 15] [nM] | IC50 (HLA-DR DRB3*01:01) [nM] | other results |
| --- | --- | --- | --- | --- | --- | --- | --- | --- | --- | --- | --- | --- | --- | --- | --- | --- | --- | --- | --- | --- | --- |
| CSCC[C@H](NC(=O)[C@H](CCCCN)NC(=O)[C@H](C)NC(=O)[C@H](Cc1ccc(O)cc1)NC(=O)[C@H](CCCCN)NC(=O)CNC(=O)[C@@H](NC(=O)[C@H](CCCCN)NC(=O)[C@H](CC(C)C)NC(=O)[C@H](CC(N)=O)NC(=O)[C@H](CCCCN)NC(=O)[C@H](Cc1ccccc1)NC(=O)[C@@H]1CCCN1C(=O)[C@H](CCC(=O)O)NC(=O)[C@@H](N)CCC(N)=O)[C@@H](C)O)C(N)=O [RT(343-357)] | 14 | 8610 | 4210 | 464 | 15100 | 1.6 | 47 | 5610 | 300 | 6510 | 2920 | 1340 |  |  |  |  |  |  |  |  |  |
| CC[C@H](C)[C@H](NC(=O)[C@H](CCCCN)NC(=O)[C@H](CCC(N)=O)NC(=O)[C@@H](NC(=O)[C@H](C)NC(=O)[C@H](CCC(=O)O)NC(=O)[C@@H](N)[C@@H](C)O)C(C)C)C(=O)N[C@@H](C)C(=O)N[C@H](C(=O)N[C@@H](CCC(=O)O)C(=O)N[C@@H](CO)C(=O)N[C@H](C(=O)N[C@H](C(=O)N[C@H](C(=O)N[C@@H](Cc1c[nH]c2ccccc12)C(=O)NCC(=O)N[C@@H](CCCCN)C(=O)N[C@H](C(=O)N1CCC[C@H]1C(=O)N[C@@H](CCCCN)C(=O)N[C@@H](Cc1ccccc1)C(=O)N[C@@H](CCCNC(=N)N)C(=O)N[C@@H](CC(C)C)C(N)=O)[C@@H](C)O)[C@@H](C)CC)C(C)C)[C@@H](C)CC)[C@@H](C)O [RT(369-391)] | 3220 |  | 1740 |  |  |  |  | 6230 | 1540 |  | 20 | 154 | 8840 | 2130 | 78 | 68 | 447 | 5360 |  |  |  |
| SEELRSLYNTVATLYCVHQ-NH2 [p17(72-90)] |  |  | 83 |  | 9710 |  | 143 | 907 | 860 | 1740 | 1100 | 1900 | 6290 | 140 |  | 435 |  |  | 240 |  |  |
| VVIQDNSDIKVVPRRKAKII-NH2 [integrase(249-268)] | 9120 |  | 3670 | 500 |  | 46 |  | 2650 | 5730 |  | 847 | 329 | 4530 |  | 3980 |  | 139 | 350 |  |  |  |
| CC[C@H](C)[C@H](NC(=O)[C@H](C)NC(=O)[C@@H](N)CCC(=O)O)C(=O)N[C@H](C(=O)N[C@@H](CCCNC(=N)N)C(=O)N[C@H](C(=O)N[C@@H](CC(C)C)C(=O)N[C@@H](CCC(N)=O)C(=O)N[C@@H](CCC(N)=O)C(=O)N[C@@H](CC(C)C)C(=O)N[C@@H](CC(C)C)C(=O)N[C@@H](Cc1ccccc1)C(=O)N[C@H](C(=O)N[C@@H](Cc1c[nH]cn1)C(=O)N[C@@H](Cc1ccccc1)C(=O)N[C@@H](CCCNC(=N)N)C(=O)N[C@H](C(=O)NCC(=O)N[C@@H](CS)C(=O)N[C@@H](CCC(N)=O)C(=O)N[C@@H](Cc1c[nH]cn1)C(=O)N[C@@H](CO)C(=O)N[C@@H](CCCNC(=N)N)C(N)=O)[C@@H](C)CC)[C@@H](C)CC)[C@@H](C)CC)[C@@H](C)CC [vpr(58-80)] |  |  | 96 | 588 | 3570 |  |  |  | 2630 | 348 |  | 2990 | 4090 |  |  | 443 | 149 |  | 113 | 11600 | IC50 (HLA-DR DRB4*01:01): 475 nM |
| EAVRHFPRPWLHGL-NH2 [vpr(29-42)] | 17000 | 9490 | 139 | 367 | 7690 |  | 112 |  | 8610 | 11 | 278 | 8450 |  |  |  | 731 |  |  |  | 7870 |  |
